Source: US20060270740A1, “Prostaglandin derivatives” (TAISHO PHARMACEUTICAL CO., LTD. and Fumie SATO, priority 2003, published 2006)
Read-outs that look alike come from different tables or passages of the source.

How the values were obtained:
[1] = target: T1, PGD2 receptor (DP receptor) (Homo sapiens, UniProt Q13258); test: PGD2 receptor (DP receptor) binding test, [3H]PGD2, human platelet membrane fraction; settings: 5 nM [3H]PGD2, 4 degree C., 90 minutes, read-out: Inhibition constant Ki
T1 construct: twice centrifuged at 105,000×g for 20 minutes at 4 degree C. to obtain platelet membrane fraction as precipitate; from tissue; host or cells: human platelet membrane fraction from blood of a healthy adult
T1 sequence (Q13258 1-359): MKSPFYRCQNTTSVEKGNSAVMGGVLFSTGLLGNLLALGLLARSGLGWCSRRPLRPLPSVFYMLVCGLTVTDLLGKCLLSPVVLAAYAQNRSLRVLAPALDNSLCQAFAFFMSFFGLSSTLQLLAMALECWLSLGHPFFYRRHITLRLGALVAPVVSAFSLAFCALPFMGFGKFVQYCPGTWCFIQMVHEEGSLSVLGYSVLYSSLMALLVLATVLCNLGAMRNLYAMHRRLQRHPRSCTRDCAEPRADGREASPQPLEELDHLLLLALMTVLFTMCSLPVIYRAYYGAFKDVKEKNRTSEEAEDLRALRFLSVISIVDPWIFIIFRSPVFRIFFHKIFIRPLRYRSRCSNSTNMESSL
Procedure: The test was conducted in accordance with the method of TsurI et al. (J. Med. Chem., 40, 3504-3507 (1997)).
(1) Preparation of Human Platelet Membrane Fraction
A sample of blood drawn from a healthy adult using a plastic syringe was placed in a plastic test tube containing 3.8% sodium citrate, and after gently mixing by overturning centrifuged at room temperature at 180×g for 20 minutes to obtain platelet-rich plasma (PRP) as supernatant. The PRP was further centrifuged at room temperature at 800×g for 20 minutes to obtain platelet as precipitate. […]
The human platelet membrane fraction (0.1 mg), 5 nM [3H]PGD2, and each compound was added to 200 μl of binding reaction solution (50 mM Tris/HCl (pH 7.4), 1 mM EDTA, 10 mM MgCl2), and reaction was conducted at 4 degree C. for 90 minutes. After reaction, the mixture was filtered under vacuum using a glass fiber filter paper, and after rinsing several times with cold physiological sodium chloride solution, residual radio activity on the filter paper was measured. The quantity of nonspecific binding in the present experiment was calculated as the quantity of radioactivity when a similar experiment was conducted in the presence of 10 μM PGD2, and the quantity of specific binding was given as the value of quantity of total binding minus quantity of nonspecific binding. […]

PGD2 receptor = target: T2, PGD2 receptor (Bos taurus, UniProt A5D7K8); test: Competitive inhibition activity test to PGD2 receptor, cAMP production in EBTr[NBL-4] cells; assay type: cell-based, bovine; settings: 37 degree C., 15 minutes
T2 construct: EBTr[NBL-4] cells derived from embryonic bovine trachea; endogenous in cells; host or cells: EBTr[NBL-4] cells (embryonic bovine trachea)
T2 sequence (A5D7K8 1-361): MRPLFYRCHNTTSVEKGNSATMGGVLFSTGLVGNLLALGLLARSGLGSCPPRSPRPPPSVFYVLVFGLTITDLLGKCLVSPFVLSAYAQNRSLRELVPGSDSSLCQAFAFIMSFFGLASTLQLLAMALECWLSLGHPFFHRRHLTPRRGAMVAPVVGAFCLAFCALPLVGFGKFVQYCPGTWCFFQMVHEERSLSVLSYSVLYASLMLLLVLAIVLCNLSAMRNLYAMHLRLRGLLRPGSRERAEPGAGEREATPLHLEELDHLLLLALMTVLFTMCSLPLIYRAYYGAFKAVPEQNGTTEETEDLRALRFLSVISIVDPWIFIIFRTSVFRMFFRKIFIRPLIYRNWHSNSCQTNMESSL
Procedure: EBTr[NBL-4] cells derived from embryonic bovine trachea were seeded on a micro-plate with 96 wells, at 8000 cells/well, and used for the experiment after culturing for 2 days in the presence of MEM culture medium (containing 10% calf cerum). The experiment was conducted in a MEM culture medium containing 500 μM IBMX and 10% calf serum. 100 μl of culture medium containing PGD2 and the test compound was added to initiate the reaction, and after reaction at 37 degree C. for 15 minutes, the culture medium was removed and ice-chilled PBS was added to terminate the reaction. Further, after removal of PBS, 200 μl of cytolytic agent (Lysis reagent 1) in cAMP enzymeImmunoassay system (Amersham) was added and cytolysis was brought about by shaking at room temperature for 10 minutes. The quantity of cAMP in the cytolytic agent was determined in accordance with the method described in the cAMP enzymeImmunoassay system. The inhibition activity of the test compound was calculated with the pA2 value as an indicator using the IC50 value when cAMP production quantity in the presence of 100 nM, 1 μM PGD2 was taken as 100%.

[2] = Competitive inhibition activity IC50, PGD2 (100 nM), PGD2 (100 nM) as printed, read-out: Competitive inhibition activity IC50, PGD1 (100 nM)
[3] = PGD2 (1 μM), read-out: Competitive inhibition activity IC50, PGD2 (1 μM)

| SMILES | Ki [1] [µM] | IC50 (PGD2 receptor; [2]) [µM] | IC50 (PGD2 receptor; [3]) [µM] |
| --- | --- | --- | --- |
| O=C(O)Cc1cccc(CC[C@@H]2[C@@H](C#C[C@@H](O)C3CCCCC3)[C@H](O)C[C@H]2Cl)c1 [Compound 38, 9-Deoxy-9β-chloro-3,4,5,16,17,18,19,20-octanol-2,6-inter-m-phenylene-15-cyclohexyl-13,14-didehydro-PGF1α] | 0.0008 | 0.73 | 1.16 |
| O=C(O)Cc1ccccc1CC[C@@H]1[C@@H](C#C[C@@H](O)C2CCCCC2)[C@H](O)C[C@H]1Cl [Compound 51, 9-Deoxy-9β-chloro-3,4,5, 16, 17, 18, 19,20-octanol-2,6-inter-o-phenylene-15-cyclohexyl-13,14-didehydro-PGF1α] | 0.0023 | 3.42 | 5.37 |
